Key:
Format in all cases: in vivo
[1] = test system: pigweed (Amaranthus retroflexus); assay: Test C postemergence, visual plant response rating; conditions: Test C, postemergence
Outline: (§1)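 Compounds in a non-phytotoxic solvent with surfactant were applied as a directed soil spray preemergence or to 2–10 cm, one- to two-leaf plants postemergence, in loam–sand soil. After about 10 d in a greenhouse, injury was visually rated against untreated controls on a 0–100 scale (100 = complete control).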

[2] = test system: wheat (Triticum aestivum); assay: Test C postemergence, visual plant response rating; conditions: Test C, postemergence
Outline: as §1

[3] = test system: Italian ryegrass (Lolium mutiflorum); assay: Test C postemergence, visual plant response rating; conditions: Test C, postemergence
Outline: as §1

[4] = test system: blackgrass (Alopecurus myosuroides); assay: Test C postemergence, visual plant response rating; conditions: Test C, postemergence
Outline: as §1

[5] = test system: foxtail, green (green foxtail, Setaria viridis); assay: Test C postemergence, visual plant response rating
Outline: as §1

[6] = test system: corn (Zea mays); assay: Test C postemergence, visual plant response rating; conditions: Test C, postemergence
Outline: as §1

[7] = test system: kochia (Bassia scoparia); assay: Test C postemergence, visual plant response rating; conditions: Test C, postemergence
Outline: as §1

[8] = test system: barnyardgrass (Echinochloa crus-galli); assay: Test C postemergence, visual plant response rating; conditions: Test C, postemergence
Outline: as §1

[9] = test system: ragweed (common ragweed, Ambrosia artemisiifolia); assay: Test C postemergence, visual plant response rating; conditions: Test C, postemergence
Outline: as §1

[10] = test system: duck salad (Heteranthera limosa); assay: Test D flooded paddy test, visual plant response rating; conditions: 250 g ai/ha, scale 0 to 100 (0 no effect, 100 complete control), 13 to 15 d
Outline: (§2)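 2-leaf plants, flooded 3 cm, cpd into paddy water; greenhouse 13–15 d; visual rating vs controls, 0 = no effect, 100 = complete control; dash = no result.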

[11] = test system: rice (Oryza sativa); assay: as above; conditions: 250 g ai/ha, scale 0 to 100 (0 no effect, 100 complete control), 13 to 15 d
Outline: as §2

[12] = test system: sedge umbrella (small-flower umbrella sedge, Cyperus difformis); assay: as above; conditions: 250 g ai/ha, scale 0 to 100 (0 no effect, 100 complete control), 13 to 15 d
Outline: as §2

[13] = test system: barnyardgrass (Echinochloa crus-galli); assay: as above; conditions: 250 g ai/ha, scale 0 to 100 (0 no effect, 100 complete control), 13 to 15 d
Outline: as §2

[14] = test system: pigweed (Amaranthus retroflexus); assay: Test C preemergence, visual plant response rating
Outline: as §1

[15] = test system: Italian ryegrass (Lolium mutiflorum); assay: Test C preemergence, visual plant response rating
Outline: as §1

[16] = test system: foxtail, green (green foxtail, Setaria viridis); assay: Test C preemergence, visual plant response rating
Outline: as §1

[17] = test system: kochia (Bassia scoparia); assay: Test C preemergence, visual plant response rating
Outline: as §1

[18] = test system: barnyardgrass (Echinochloa crus-galli); assay: Test C preemergence, visual plant response rating
Outline: as §1

[19] = test system: ragweed (common ragweed, Ambrosia artemisiifolia); assay: Test C preemergence, visual plant response rating
Outline: as §1

Row | Compound | Pigweed plant response rating (0 to 100 scale) ([1]; 500 g ai/ha) | Wheat plant response rating (0 to 100 scale) ([2]; 500 g ai/ha) | Ryegrass, Italian plant response rating (0 to 100 scale) ([3]; 500 g ai/ha) | Blackgrass plant response rating (0 to 100 scale) ([4]; 500 g ai/ha) | Foxtail, Green plant response rating (0 to 100 scale) ([5]; 500 g ai/ha) | Corn plant response rating (0 to 100 scale) ([6]; 500 g ai/ha) | Kochia plant response rating (0 to 100 scale) ([7]; 500 g ai/ha) | Barnyardgrass plant response rating (0 to 100 scale) ([8]; 500 g ai/ha) | Ragweed plant response rating (0 to 100 scale) ([9]; 500 g ai/ha) | Pigweed plant response rating (0 to 100 scale) ([14]; 500 g ai/ha) | Ryegrass, Italian plant response rating (0 to 100 scale) ([15]; 500 g ai/ha) | Foxtail, Green plant response rating (0 to 100 scale) ([16]; 500 g ai/ha) | Kochia plant response rating (0 to 100 scale) ([17]; 500 g ai/ha) | Barnyardgrass plant response rating (0 to 100 scale) ([18]; 500 g ai/ha) | Ragweed plant response rating (0 to 100 scale) ([19]; 500 g ai/ha) | further results
1 | Cc1nn(C)c(=O)c(/C(=N\OCc2ccccc2)c2cccc(Cl)c2)c1O [Compound 149] | 0 | 0 | 10 | 0 | 0 | 0 | 0 | 0 | 0 | 20 | 0 | 0 | 0 | 0 | 0 | Pigweed plant response rating (0 to 100 scale) ([1]; 125 g ai/ha): 0; Wheat plant response rating (0 to 100 scale) ([2]; 125 g ai/ha): 0; Ryegrass, Italian plant response rating (0 to 100 scale) ([3]; 125 g ai/ha): 0; Blackgrass plant response rating (0 to 100 scale) ([4]; 125 g ai/ha): 0; Foxtail, Green plant response rating (0 to 100 scale) ([5]; 125 g ai/ha): 0; Corn plant response rating (0 to 100 scale) ([6]; 125 g ai/ha): 0; Kochia plant response rating (0 to 100 scale) ([7]; 125 g ai/ha): 0; Barnyardgrass plant response rating (0 to 100 scale) ([8]; 125 g ai/ha): 0; Ragweed plant response rating (0 to 100 scale) ([9]; 125 g ai/ha): 0; Plant response rating, Ducksalad (Flood) [10]: 0; Plant response rating, Rice (Flood) [11]: 0; Plant response rating, Sedge, Umbrella (Flood) [12]: 0; Plant response rating, Barnyardgrass (Flood) [13]: 0; Pigweed plant response rating (0 to 100 scale) ([14]; 125 g ai/ha): 0; Ryegrass, Italian plant response rating (0 to 100 scale) ([15]; 125 g ai/ha): 0; Foxtail, Green plant response rating (0 to 100 scale) ([16]; 125 g ai/ha): 0; Kochia plant response rating (0 to 100 scale) ([17]; 125 g ai/ha): 0; Barnyardgrass plant response rating (0 to 100 scale) ([18]; 125 g ai/ha): 0; Ragweed plant response rating (0 to 100 scale) ([19]; 125 g ai/ha): 0
2 | Cc1nn(C)c(=O)c(/C(=N/OCc2ccccc2)c2cccc(Cl)c2)c1O [Compound 150] | 0 | 0 | 10 | 0 | 0 | 0 | 0 | 0 | 20 | 0 | 0 | 0 | 0 | 0 | 80 | 

Reference: patent US20210045385A1, “PYRIDAZINONE-SUBSTITUTED KETOXIMES AS HERBICIDES” (FMC Corporation, priority 2018, published 2021)
